In patent US20200199097A1, “POMALIDOMIDE DERIVATIVE AND PREPARATION METHOD THEREFOR” (NANJING NORATECH PARMACEUTICALS CO., LTD, priority 2017, published 2020):
Converted amounts (≈) assume the structure as drawn. Structures can show the parent of a compound that is named as a salt. Where two headings read alike, the source gives them in different places.

Experiments:
[1] = Determination of solubility in water at room temperature by HPLC; format: physicochemical; details: saturated solubility not determined; for solubility: thermodynamic from solid, read-out: Minimum solubility in water at room temperature
Description: 1 mg of compound 1 was mixed with 1 mL of water, stirred at room temperature, and completely dissolved, and the supernatant was taken as a test sample solution.
50 mg of the hydrochloride or tromethamine salt of the compound was mixed with 150 μl of water, stirred at room temperature, and completely dissolved, and the supernatant was taken as a test sample solution.
In this test, the saturated solubility of the sample is not determined, but an appropriate amount of the sample is selected to determine the solubility of the sample. […] However, the solubility of pomalidomide in water is about 0.01 mg/ml, which is much lower than the solubility of the compound of the present invention or the salt thereof.

[2] = Determination of stability under different environmental conditions; format: physicochemical
Description: An appropriate amount of the sample was independently placed under different environmental conditions, and the percentage of the sample at day 0, 5, 10 or 30 was determined to evaluate the stability of the sample.

[3] = cited from earlier work

CC(C)[C@H](N)C(=O)OCN1C(=O)CCC(N2C(=O)c3cccc(N)c3C2=O)C1=O (some centres unmarked) [Compound 1]
Minimum solubility in water at room temperature [1]: 1 mg/mL

Nc1cccc2c1C(=O)N(C1CCC(=O)N(COP(=O)(O)O)C1=O)C2=O (centres unmarked) [Ditromethamine salt of compound 11]
percentage of the sample ([2]; Day 0): 99.9%
percentage of the sample ([2]; Day 5/40° C./60% RH/Dark): 92.8%
percentage of the sample ([2]; Day 5/60° C./75% RH/Dark): 15.6%
percentage of the sample ([2]; Day 5/Light): 99.5%
percentage of the sample ([2]; Day 5/RT/75% RH/Dark): 79.8%
percentage of the sample ([2]; Day 5/RT/92.5% RH/Dark): 78.4%
solubility [1]: > 300 mg/mL

CC(C)[C@H](N)C(=O)OCN1C(=O)CCC(N2C(=O)c3cccc(N)c3C2=O)C1=O (some centres unmarked) [Hydrochloride salt of compound 1]
percentage of the sample ([2]; Day 0): 97.1%
percentage of the sample ([2]; Day 10/40° C./60% RH/Dark): 96.9%
percentage of the sample ([2]; Day 10/60° C./75% RH/Dark): 96.4%
percentage of the sample ([2]; Day 10/Light): 96.7%
percentage of the sample ([2]; Day 10/RT/75% RH/Dark): 96.8%
percentage of the sample ([2]; Day 10/RT/92.5% RH/Dark): 95.5%
percentage of the sample ([2]; Day 30/40° C./60% RH/Dark): 95.1%
percentage of the sample ([2]; Day 30/60° C./75% RH/Dark): 94.7%
percentage of the sample ([2]; Day 30/Light): 95.0%
percentage of the sample ([2]; Day 30/RT/75% RH/Dark): 96.1%
percentage of the sample ([2]; Day 30/RT/92.5% RH/Dark): 93.3%
Minimum solubility in water at room temperature [1]: >300 mg/mL

NCC(=O)OCN1C(=O)CCC(N2C(=O)c3cccc(N)c3C2=O)C1=O (centres unmarked) [Hydrochloride salt of compound 2]
percentage of the sample ([2]; Day 0): 96.1%
percentage of the sample ([2]; Day 10/40° C./60% RH/Dark): 43.5%
percentage of the sample ([2]; Day 10/60° C./75% RH/Dark): 13.3%
percentage of the sample ([2]; Day 10/RT/92.5% RH/Dark): 93.3%
solubility [1]: > 300 mg/mL

C[C@H](N)C(=O)OCN1C(=O)CCC(N2C(=O)c3cccc(N)c3C2=O)C1=O (some centres unmarked) [Hydrochloride salt of compound 3]
solubility [1]: > 300 mg/mL

CC(C)C[C@H](N)C(=O)OCN1C(=O)CCC(N2C(=O)c3cccc(N)c3C2=O)C1=O (some centres unmarked) [Hydrochloride salt of compound 4]
solubility [1]: > 300 mg/mL

CC[C@H](C)[C@H](N)C(=O)OCN1C(=O)CCC(N2C(=O)c3cccc(N)c3C2=O)C1=O (some centres unmarked) [Hydrochloride salt of compound 5]
solubility [1]: > 300 mg/mL

Nc1cccc2c1C(=O)N(C1CCC(=O)N(COC(=O)[C@@H]3CCCN3)C1=O)C2=O (some centres unmarked) [Hydrochloride salt of compound 6]
solubility [1]: > 300 mg/mL

Nc1cccc2c1C(=O)N(C1CCC(=O)N(COC(=O)[C@@H](N)Cc3ccccc3)C1=O)C2=O (some centres unmarked) [Hydrochloride salt of compound 7]
solubility [1]: > 300 mg/mL

Nc1cccc2c1C(=O)N(C1CCC(=O)NC1=O)C2=O (centres unmarked) [Pomalidomide]
solubility ([3]; 0.1 mol/L hydrochloric acid): 0.0189 mg/mL (≈ 69.2 µM)
solubility ([3]; acetate buffer (pH 4.5)): 0.0187 mg/mL (≈ 68.4 µM)
solubility ([3]; phosphate buffer (pH 6.8)): 0.017 mg/mL (≈ 62.2 µM)
solubility ([3]; purified water): 0.0178 mg/mL (≈ 65.1 µM)
solubility of pomalidomide in water ([3]; water): about 0.01 mg/ml
